These compounds were tested against T1, ENaC (Mus musculus, UniProt Q61180+Q9WU38+Q9WU39) (assay: Ussing chamber: short circuit current (I_sc) in mouse kidney M-1 cells, amiloride-sensitive). Conditions: compound applied to apical solution, 37° C.
T1 construct: Mouse kidney M-1 cells were cultivated in DMEM containing 5% FCS and 5 μM dexamethasone; endogenous in cells; host or cells: mouse kidney M-1 cells
T1 sequence (Q61180 1-699): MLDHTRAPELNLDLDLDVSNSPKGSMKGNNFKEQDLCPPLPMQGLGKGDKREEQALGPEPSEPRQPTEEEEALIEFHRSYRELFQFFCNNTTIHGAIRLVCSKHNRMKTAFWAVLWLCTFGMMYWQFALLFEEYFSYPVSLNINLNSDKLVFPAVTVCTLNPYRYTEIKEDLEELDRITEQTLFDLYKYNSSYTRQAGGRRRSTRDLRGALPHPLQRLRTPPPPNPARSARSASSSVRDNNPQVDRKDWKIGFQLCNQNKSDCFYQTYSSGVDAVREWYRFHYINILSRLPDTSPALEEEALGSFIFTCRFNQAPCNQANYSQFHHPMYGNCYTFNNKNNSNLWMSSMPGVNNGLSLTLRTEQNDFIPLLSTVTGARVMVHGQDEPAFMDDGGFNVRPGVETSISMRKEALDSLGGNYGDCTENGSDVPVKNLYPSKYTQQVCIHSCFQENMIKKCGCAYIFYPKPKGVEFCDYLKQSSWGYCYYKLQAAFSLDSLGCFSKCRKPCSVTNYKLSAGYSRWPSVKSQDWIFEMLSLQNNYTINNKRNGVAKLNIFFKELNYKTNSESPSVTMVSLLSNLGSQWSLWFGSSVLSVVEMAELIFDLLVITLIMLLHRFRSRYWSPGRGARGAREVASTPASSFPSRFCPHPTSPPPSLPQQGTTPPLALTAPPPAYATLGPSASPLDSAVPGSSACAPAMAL
T1 sequence (Q9WU38 1-638): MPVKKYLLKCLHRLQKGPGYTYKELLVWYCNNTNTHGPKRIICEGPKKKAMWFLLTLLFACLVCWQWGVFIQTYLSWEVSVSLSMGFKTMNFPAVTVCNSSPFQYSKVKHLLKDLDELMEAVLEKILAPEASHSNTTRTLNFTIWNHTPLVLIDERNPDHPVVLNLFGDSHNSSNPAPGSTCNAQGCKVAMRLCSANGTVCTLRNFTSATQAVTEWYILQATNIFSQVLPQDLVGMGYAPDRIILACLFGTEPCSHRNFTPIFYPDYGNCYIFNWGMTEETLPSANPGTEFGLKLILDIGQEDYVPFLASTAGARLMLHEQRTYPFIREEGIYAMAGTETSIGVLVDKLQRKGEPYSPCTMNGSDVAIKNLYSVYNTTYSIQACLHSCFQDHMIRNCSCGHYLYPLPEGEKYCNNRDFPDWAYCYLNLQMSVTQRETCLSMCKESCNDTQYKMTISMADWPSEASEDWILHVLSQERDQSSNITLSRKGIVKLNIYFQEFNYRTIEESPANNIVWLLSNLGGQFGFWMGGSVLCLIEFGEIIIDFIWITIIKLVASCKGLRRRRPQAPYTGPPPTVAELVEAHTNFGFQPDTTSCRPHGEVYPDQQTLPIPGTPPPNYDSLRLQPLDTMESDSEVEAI
T1 sequence (Q9WU39 1-655): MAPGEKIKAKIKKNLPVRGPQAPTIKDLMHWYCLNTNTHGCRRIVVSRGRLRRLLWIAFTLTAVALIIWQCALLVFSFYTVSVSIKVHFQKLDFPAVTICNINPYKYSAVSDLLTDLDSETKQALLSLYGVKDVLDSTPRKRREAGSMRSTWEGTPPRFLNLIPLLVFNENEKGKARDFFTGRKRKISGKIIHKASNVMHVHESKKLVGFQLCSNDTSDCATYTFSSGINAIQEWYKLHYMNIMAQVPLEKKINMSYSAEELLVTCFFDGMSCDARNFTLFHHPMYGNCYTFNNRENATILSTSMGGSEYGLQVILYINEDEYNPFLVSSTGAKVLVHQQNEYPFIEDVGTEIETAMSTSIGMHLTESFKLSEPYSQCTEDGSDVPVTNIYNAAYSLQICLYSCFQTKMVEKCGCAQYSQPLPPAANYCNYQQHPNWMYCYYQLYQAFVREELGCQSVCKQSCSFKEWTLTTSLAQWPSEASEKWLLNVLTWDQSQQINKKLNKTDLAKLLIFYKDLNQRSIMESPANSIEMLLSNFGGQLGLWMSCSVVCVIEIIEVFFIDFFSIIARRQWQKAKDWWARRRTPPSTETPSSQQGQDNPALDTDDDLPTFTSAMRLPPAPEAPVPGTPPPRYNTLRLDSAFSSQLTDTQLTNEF
Type: cell-based
Experimental: Ussing Chamber: Mouse kidney M-1 cells were cultivated in DMEM containing 5% FCS and 5 μM dexamethasone for 10 to 12 days on polyester transwell filters. Filters were inserted into a teflon-coated well-plate which fit into the in-house ussing chamber system. Prior to measurement the medium of M-1 cells was replaced with Caco-2 transport buffer (Invitrogen, Germany). During measurements, the Ussing chamber temperature was kept at 37° C. Short circuit currents (I_sc) were measured in the voltage-clamp mode using an in-house built amplifier (Boehringer Ingelheim, Biberach) with the software package Lab View for data acquisition and analysis. The transepithelial electrical resistance (TEER) was determined by the application of voltage steps of ±5 mV every 5 sec. Compounds were administered at a final concentration of 3 μM or at increasing concentrations (1-3-10 μM) to the apical solution. At the end of each experiment the amiloride sensitive I_SC was measured by adding 3 μM amiloride to the apical compartment. Results are expressed as inhibition in percent of the amiloride effect or as IC50.
Compound `CC(C)(C)c1ccc(C[N+]23CCC(CC2)[C@H](N/C(N)=N/C(=O)c2nc(Cl)c(N)nc2N)C3)cc1` [Example 8, (S)-1-(4-tert-Butyl-benzyl)-3-[N′-(3,5-diamino-6-chloro-pyrazine-2-carbonyl)-guanidino]-1-azoniabicyclo[2.2.2]octane chloride] has an IC50 of 41 nM. With `NC(=NC(=O)c1nc(Cl)c(N)nc1N)N[C@@H]1C[N+]2(Cc3cccc(SC(F)(F)F)c3)CCC1CC2` [Example 9] the IC50 was 3 nM. Compound `NC(=NC(=O)c1nc(Cl)c(N)nc1N)N[C@@H]1C[N+]2(Cc3ccccc3SC(F)(F)F)CCC1CC2` [Example 10] has an IC50 of 60 nM. With `N/C(=N\C(=O)c1nc(Cl)c(N)nc1N)N[C@@H]1C[N+]2(Cc3ccc4ccccc4n3)CCC1CC2` [Example 11, (S)-3-[N′-(3,5-Diamino-6-chloro-pyrazine-2-carbonyl)-guanidino]-1-quinolin-2-ylmethyl-1-azoniabicyclo[2.2.2]octane chloride] the IC50 was 29 nM. Compound `N/C(=N\C(=O)c1nc(Cl)c(N)nc1N)N[C@@H]1C[N+]2(Cc3ccc(C(F)(F)F)nc3)CCC1CC2` [Example 12, (S)-3-[N′-(3,5-Diamino-6-chloro-pyrazine-2-carbonyl)-guanidino]-1-(6-trifluoromethyl-pyridin-3-ylmethyl)-1-azonia-bicyclo[2.2.2]octane chloride] has an IC50 of 63 nM. `N/C(=N\C(=O)c1nc(Cl)c(N)nc1N)N[C@@H]1C[N+]2(Cc3ccccn3)CCC1CC2` [Example 13, (S)-3-[N′-(3,5-Diamino-6-chloro-pyrazine-2-carbonyl)-guanidino]-1-pyridin-2-ylmethyl-1-azoniabicyclo[2.2.2]octane chloride] showed an IC50 of 90 nM. `N/C(=N\C(=O)c1nc(Cl)c(N)nc1N)N[C@@H]1C[N+]2(Cc3ccc(F)cc3)CCC1CC2` [Example 14, (S)-3-[N′-(3,5-Diamino-6-chloro-pyrazine-2-carbonyl)-guanidino]-1-(4-fluoro-benzyl)-1-azoniabicyclo[2.2.2]octane chloride] gave an IC50 of 28 nM. Compound `NC(=NC(=O)c1nc(Cl)c(N)nc1N)N[C@@H]1C[N+]2(Cc3ccc(Cl)cc3)CCC1CC2` [Example 15] has an IC50 of 18 nM. `COc1cccc(C[N+]23CCC(CC2)[C@H](NC(N)=NC(=O)c2nc(Cl)c(N)nc2N)C3)c1` [Example 16] gave an IC50 of 14 nM. `NC(=NC(=O)c1nc(Cl)c(N)nc1N)N[C@@H]1C[N+]2(Cc3ccc(CO)cc3)CCC1CC2` [Example 17] showed an IC50 of 52 nM. Work on `NC(=NC(=O)c1nc(Cl)c(N)nc1N)N[C@@H]1C[N+]2(Cc3ccc(C(F)(F)F)cc3)CCC1CC2` [Example 18] yielded an IC50 of 43 nM. Compound `NC(=NC(=O)c1nc(Cl)c(N)nc1N)N[C@@H]1C[N+]2(Cc3ccc(OCc4ccccc4)cc3)CCC1CC2` [Example 19] has an IC50 of 32 nM. In the case of `NC(=NC(=O)c1nc(Cl)c(N)nc1N)N[C@@H]1C[N+]2(Cc3nc4ccccc4s3)CCC1CC2` [Example 20], the IC50 is reported as 29 nM. `CS(=O)(=O)c1ccc(C[N+]23CCC(CC2)[C@H](NC(N)=NC(=O)c2nc(Cl)c(N)nc2N)C3)cc1` [Example 21] was tested, and the IC50 was 176 nM. Compound `COc1ccccc1C[N+]12CCC(CC1)[C@H](NC(N)=NC(=O)c1nc(Cl)c(N)nc1N)C2` [Example 22] has an IC50 of 92 nM. `CC#CC[N+]12CCC(CC1)[C@H](NC(N)=NC(=O)c1nc(Cl)c(N)nc1N)C2` [Example 23] gave an IC50 of 172 nM. `CCNC(=O)C[N+]12CCC(CC1)[C@H](NC(N)=NC(=O)c1nc(Cl)c(N)nc1N)C2` [Example 24] showed an IC50 of 56 nM. In the case of `NC(=O)c1ccc(C[N+]23CCC(CC2)[C@H](NC(N)=NC(=O)c2nc(Cl)c(N)nc2N)C3)cc1` [Example 25], the IC50 is reported as 693 nM. In the case of `NC(=NC(=O)c1nc(Cl)c(N)nc1N)N[C@@H]1C[N+]2(Cc3ccc(F)c(Cl)c3)CCC1CC2` [Example 26], the IC50 is reported as 13 nM. `NC(=NC(=O)c1nc(Cl)c(N)nc1N)N[C@@H]1C[N+]2(Cc3cccc(Cl)c3)CCC1CC2` [Example 27] showed an IC50 of 12 nM. `COc1cc(C[N+]23CCC(CC2)[C@H](NC(N)=NC(=O)c2nc(Cl)c(N)nc2N)C3)cc(OC)c1` [Example 28] gave an IC50 of 80 nM. Work on `NC(=NC(=O)c1nc(Cl)c(N)nc1N)N[C@@H]1C[N+]2(Cc3ccc(Cl)s3)CCC1CC2` [Example 29] yielded an IC50 of 29 nM. Work on `CCN(CC)C(=O)C[N+]12CCC(CC1)[C@H](NC(N)=NC(=O)c1nc(Cl)c(N)nc1N)C2` [Example 30] yielded an IC50 of 35 nM. For `Cc1nc(C[N+]23CCC(CC2)[C@H](NC(N)=NC(=O)c2nc(Cl)c(N)nc2N)C3)cs1` [Example 31], the IC50 was 54 nM. Compound `N#Cc1ccc(C[N+]23CCC(CC2)[C@H](NC(N)=NC(=O)c2nc(Cl)c(N)nc2N)C3)cc1` [Example 32] has an IC50 of 202 nM. With `N#Cc1cccc(C[N+]23CCC(CC2)[C@H](NC(N)=NC(=O)c2nc(Cl)c(N)nc2N)C3)c1` [Example 33] the IC50 was 38 nM. `NC(=NC(=O)c1nc(Cl)c(N)nc1N)N[C@@H]1C[N+]2(CC(=O)NCc3ccccc3)CCC1CC2` [Example 34] gave an IC50 of 7 nM. Work on `NC(=NC(=O)c1nc(Cl)c(N)nc1N)N[C@@H]1C[N+]2(Cc3cscn3)CCC1CC2` [Example 35] yielded an IC50 of 150 nM. `NC(=NC(=O)c1nc(Cl)c(N)nc1N)N[C@@H]1C[N+]2(Cc3cc(F)cc(F)c3)CCC1CC2` [Example 36] gave an IC50 of 30 nM. `COc1cccc(C[N+]23CCC(CC2)[C@H](NC(N)=NC(=O)c2nc(Cl)c(N)nc2N)C3)c1OC` [Example 37] gave an IC50 of 34 nM. `NC(=NC(=O)c1nc(Cl)c(N)nc1N)N[C@@H]1C[N+]2(Cc3ccc(F)c(F)c3)CCC1CC2` [Example 38] gave an IC50 of 23 nM. Compound `NC(=NC(=O)c1nc(Cl)c(N)nc1N)N[C@@H]1C[N+]2(CC(=O)OCc3ccccc3)CCC1CC2` [Example 39] has an IC50 of 23 nM. `NC(=NC(=O)c1nc(Cl)c(N)nc1N)N[C@@H]1C[N+]2(Cc3ccc(CC(=O)O)cc3)CCC1CC2` [Example 40] was tested, and the IC50 was 625 nM. Work on `NC(=NC(=O)c1nc(Cl)c(N)nc1N)N[C@@H]1C[N+]2(CC(=O)c3ccccc3)CCC1CC2` [Example 41] yielded an IC50 of 63 nM. With `CCOC(=O)C[N+]12CCC(CC1)[C@H](NC(N)=NC(=O)c1nc(Cl)c(N)nc1N)C2` [Example 42] the IC50 was 191 nM. `NC(=NC(=O)c1nc(Cl)c(N)nc1N)N[C@@H]1C[N+]2(CC(=O)NCc3ccc(Cl)cc3)CCC1CC2` [Example 44] gave an IC50 of 2 nM. For `NC(=NC(=O)c1nc(Cl)c(N)nc1N)N[C@@H]1C[N+]2(Cc3ccncc3)CCC1CC2` [Example 45], the IC50 was 279 nM. Compound `CC(C)(C)OC(=O)c1ccc(C[N+]23CCC(CC2)[C@H](NC(N)=NC(=O)c2nc(Cl)c(N)nc2N)C3)cc1` [Example 46] has an IC50 of 267 nM. `NC(=NC(=O)c1nc(Cl)c(N)nc1N)N[C@@H]1C[N+]2(Cc3nnsc3Cl)CCC1CC2` [Example 47] was tested, and the IC50 was 226 nM.
